Among the test systems are EKVX NSCLC; ACHN renal; HOP-92 NSCLC; MDA-MB-435; NCI-H226 lung; NCI-H522 lung; SNB-75 CNS; SF-268 CNS; SK-MEL-5 melanoma; DU-145 prostate; SK-MEL-2 melanoma.
What all share (experiment): DTP human tumour cell line panel, 48 h

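Values below derive from 48-hour exposures of cells grown in 96-well plates, with endpoints linearly interpolated between the two concentrations bracketing the appropriate inhibition level. TGI denotes the concentration required for complete inhibition of growth.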

The term TGI denotes the concentration at which net growth stops. Low readings indicate greater sensitivity of the cells, high ones lower sensitivity of the cells.

`COc1ccc(C2SC(C)C(=O)N2c2nc(-c3nc(-c4ccc(Cl)cc4)cs3)cs2)cc1` (centres undefined): the TGI in the assay on EKVX NSCLC, with ACHN renal, with HOP-92 NSCLC, in the assay on MDA-MB-435, in the assay on NCI-H226 lung and in the assay with NCI-H522 lung was above 100 µM throughout. The total growth inhibition concentration (TGI) in the assay on SNB-75 CNS, in the assay with SF-268 CNS and with SK-MEL-5 melanoma was above 100 µM each time.

Regarding `C=CCNC1=C2C[C@@H](C)C[C@@H](OC)[C@H](OC(=O)CN)[C@H](C)/C=C(\C)[C@@H](OC(N)=O)[C@H](OC)/C=C\C=C(/C)C(=O)NC(=CC1=O)C2=O`, the TGI in the assay on EKVX NSCLC is 21.7 µM; with ACHN renal it was 19.6 µM; in the assay with HOP-92 NSCLC, 8.71 µM; with DU-145 prostate, above 40.9 µM; with MDA-MB-435, 14.3 µM; in the assay on NCI-H522 lung, 18.8 µM. The TGI in the assay with SNB-75 CNS came out at 9.59 µM; in the assay with SK-MEL-2 melanoma, 18.7 µM; in the assay with SF-268 CNS, 29.7 µM; with SK-MEL-5 melanoma, 17.9 µM.

Take `Cc1ccc(S(=O)(=O)N2CCCC2C(=O)O[C@H]2CC[C@H]3CC=C[C@H]32)cc1` (some centres undefined): the concentration for total growth inhibition (TGI) in the assay with EKVX NSCLC was above 100 µM; in the assay on ACHN renal, above 31.6 µM; in the assay with MDA-MB-435, above 100 µM; in the assay on NCI-H226 lung, above 100 µM; in the assay with SNB-75 CNS it was above 100 µM; with SF-268 CNS it was above 100 µM. Further, the concentration for total growth inhibition (TGI) in the assay with SK-MEL-5 melanoma was 43.6 µM.

As for `O=C(Nc1ccccc1F)c1cc2ccc(O)cc2oc1=Nc1cccc(C(F)(F)F)c1`, the total growth inhibition concentration (TGI) with EKVX NSCLC was 10.6 µM; in the assay with ACHN renal, 19.4 µM; with DU-145 prostate, above 100 µM; with MDA-MB-435, 22.7 µM; with NCI-H522 lung, 18.7 µM; in the assay with SK-MEL-2 melanoma it was 36 µM. The TGI in the assay on SF-268 CNS was 13.2 µM; in the assay on SK-MEL-5 melanoma it was 4.91 µM.

Turning to `COc1cc([C@@H]2c3cc4c(cc3[C@@H](NC(=O)c3cccc(F)c3)C3COC(=O)[C@@H]32)OCO4)cc(OC)c1O` (some centres undefined), the TGI in the assay with EKVX NSCLC worked out at 7.49 µM; with ACHN renal it was 1.85 µM; with HOP-92 NSCLC it was 89.6 µM; in the assay with NCI-H226 lung, 2.2 µM; in the assay on NCI-H522 lung it was 3.97 µM; in the assay with SNB-75 CNS, 5.24 µM. In addition, the concentration for total growth inhibition (TGI) with SK-MEL-2 melanoma was 18 µM; in the assay with SF-268 CNS it was above 100 µM; in the assay with SK-MEL-5 melanoma it was 12.7 µM.

As to `Cc1ccc(/C=C/C(=N/NC(=O)N/N=C(/C=C/c2ccc(C)cc2)C(C)(C)CN2CCCCC2)C(C)(C)CN2CCCCC2)cc1`, the TGI in the assay on EKVX NSCLC stood at 6.69 µM; in the assay on ACHN renal, 4.23 µM; with HOP-92 NSCLC, 3.44 µM; in the assay with MDA-MB-435, 2.76 µM; with NCI-H226 lung, 4.51 µM; in the assay on NCI-H522 lung, 3.04 µM. The concentration for total growth inhibition (TGI) in the assay on SNB-75 CNS is 3.08 µM; in the assay with SK-MEL-2 melanoma, 3.44 µM; in the assay on SF-268 CNS, 4.64 µM; in the assay with SK-MEL-5 melanoma it was 3.08 µM.

For `CC(=O)NNc1nc(C)c(C(/C=C/c2ccc(Cl)cc2)=N/NC(=O)C[N+](C)(C)C)s1`, the TGI with EKVX NSCLC, with ACHN renal, in the assay with HOP-92 NSCLC, with NCI-H226 lung, in the assay with NCI-H522 lung and in the assay with SNB-75 CNS was above 100 µM in each case. For the same molecule, the TGI in the assay on SK-MEL-2 melanoma, with SF-268 CNS and with SK-MEL-5 melanoma was above 100 µM in each case.

Regarding `[N-]=[N+]=NC(CBr)c1cn([C@H]2C[C@H](O)[C@@H](CO)O2)c(=O)[nH]c1=O` (some centres undefined), the total growth inhibition concentration (TGI) in the assay with EKVX NSCLC, in the assay with ACHN renal, in the assay on HOP-92 NSCLC, in the assay on NCI-H226 lung, in the assay on NCI-H522 lung and with SNB-75 CNS was above 100 µM in each case. Besides, the TGI in the assay on SK-MEL-2 melanoma and in the assay on SK-MEL-5 melanoma was above 100 µM throughout.

As to `CC(C)C(/C=C/c1ccc(Br)cc1)=N\NC(N)=O`, the total growth inhibition concentration (TGI) with EKVX NSCLC, in the assay with ACHN renal, in the assay with HOP-92 NSCLC, with NCI-H226 lung, in the assay on NCI-H522 lung and in the assay with SNB-75 CNS was above 100 µM each time. For the same molecule, the total growth inhibition concentration (TGI) with SK-MEL-2 melanoma, in the assay with SF-268 CNS and in the assay with SK-MEL-5 melanoma was above 100 µM in each case.

With `CSc1nc2[nH]c(=O)c(C)nc2c(=O)[nH]1`, the total growth inhibition concentration (TGI) in the assay on EKVX NSCLC, in the assay on ACHN renal, in the assay with HOP-92 NSCLC, in the assay on NCI-H522 lung, in the assay with SNB-75 CNS and in the assay on SK-MEL-2 melanoma was above 100 µM in each case. The TGI in the assay with SF-268 CNS and in the assay with SK-MEL-5 melanoma was above 100 µM each time.

For the molecule `O=C(CCN1CCOCC1)Nc1ccc2sc3ccccc3c(=O)c2n1`, the total growth inhibition concentration (TGI) with EKVX NSCLC is above 100 µM; with ACHN renal, above 100 µM; in the assay with HOP-92 NSCLC, above 100 µM; in the assay on DU-145 prostate, above 100 µM; in the assay on MDA-MB-435 it was above 100 µM; in the assay with NCI-H522 lung, 45.9 µM. The concentration for total growth inhibition (TGI) in the assay on SNB-75 CNS is 85.1 µM; with SK-MEL-2 melanoma, above 100 µM; in the assay with SF-268 CNS, above 100 µM; in the assay with SK-MEL-5 melanoma, 82.5 µM.

Take `O=C(O)c1oc(C(=O)O)c(C(=O)O)c1C(=O)O`: the total growth inhibition concentration (TGI) in the assay with EKVX NSCLC, in the assay with ACHN renal, in the assay with HOP-92 NSCLC, in the assay with DU-145 prostate, with NCI-H226 lung and in the assay with NCI-H522 lung was above 100 µM in each case. The concentration for total growth inhibition (TGI) in the assay with SK-MEL-2 melanoma, in the assay on SF-268 CNS and in the assay on SK-MEL-5 melanoma was above 100 µM each time.

On to `O=c1[nH]n(Cc2ccccn2)c2ccc([N+](=O)[O-])cc12`, for which the TGI in the assay with EKVX NSCLC, with ACHN renal, with HOP-92 NSCLC, in the assay with DU-145 prostate, with NCI-H226 lung and in the assay on NCI-H522 lung was above 100 µM each time. Besides, the TGI in the assay on SNB-75 CNS, in the assay with SK-MEL-2 melanoma, in the assay with SF-268 CNS and in the assay with SK-MEL-5 melanoma was above 100 µM in each case.

As to `CCCCS(=O)(=O)Nc1ccc(Nc2c3ccccc3nc3ccccc23)c(OC)c1`, the TGI is 14.4 µM in the assay with EKVX NSCLC; 9.08 µM in the assay with HOP-92 NSCLC; 16.9 µM in the assay on NCI-H226 lung; 18.7 µM in the assay on NCI-H522 lung; 7.69 µM in the assay on SNB-75 CNS; 30.9 µM in the assay on SK-MEL-2 melanoma. The TGI in the assay with SF-268 CNS stood at 14.5 µM; in the assay with SK-MEL-5 melanoma, 18.1 µM.
